Assay results: patent publication US10513519B2, “Solid forms of (1S,4S)-4-(2-(((3S,4R)-3-fluorotetrahydro-2H-pyran-4-yl)amino)-8-((2,4,6-trichlorophenyl)amino)-9H-purin-9-yl)-1-methylcyclohexane-1-carboxamide and methods of their use” (Signal Pharmaceuticals, LLC, priority 2016, dated 2019)
≈ marks a conversion by molar mass, not a printed value. Where two headings read alike, the source gives them in different places.

Key:
[1] = Dynamic vapor sorption (hygroscopicity); type: physicochemical; details: for DVS water uptake: up to 90% RH, Compound 1 citrate salt polymorphs; for hygroscopicity (in words): DVS; for water uptake: between 0 and 90% RH; for DVS wt gain: @ 95% RH, Compound 1 HCl salt forms
Procedure: Dynamic vapor sorption (DVS) was measured using DVS advantage (Surface Measurement Systems Ltd). The samples were tested under isotherm (25° C.) at a targeted RH of 0 to 95% full cycle in step mode. For an isotherm test, the chamber temperature was maintained by a water bath at constant 25.0±1.0° C. The relative humidity in the sample chamber was generated by combining different flows of wet and dry nitrogen with variable flow rates. The analysis was performed in 10% RH increments. Sampling rate was 1 sec save data rate is 20 sec. The dm/dt (%) value was set at 0.001 with a dm/dt window of 5 min., a minimum stability duration time of 10 min, and a maximum stage time of 180 min. The sample's equilibrium weight corresponding to each RH was recorded. A sorption isotherm was obtained by plotting equilibrium moisture content versus RH.
Hygroscopicity was determined on a Surface Measurement Systems DVS. A sample size of 5-20 mg was loaded into the DVS instrument sample pan and the sample was analyzed on a DVS automated sorption analyzer at room temperature. The relative humidity was increased from 0% to 90% RH at 10% RH step, then decreased in a similar manner to accomplish a full adsorption/desorption cycle.

[2] = Compression test (2000-psi pressure); type: physicochemical; details: 2000-psi pressure for about 1 minute
[3] = Solubility of salt forms and free base in water, SGF, SIF and 0.5% HPMC in […] Tween 80
[4] = Solid state stability of salt forms and free base; type: physicochemical
[5] = Solubility in biorelevant media (FeSSIF, FaSSIF, FaSSGF, FeSSGF)
[6] = Approximate solubility of HCl salt starting material in selected organic solvents; type: physicochemical; details: room temperature
Procedure: Solubility of the starting mater in selected organic solvents was determined by mixing with selected solvents at room temperature.

physchem [7] = details: simulated gastric fluid, thermodynamic from solid
physchem [8] = details: FaSSGF, fassgf or other biorelevant
[9] = Stability of free base in solution and in solid state under stress conditions; type: physicochemical
[10] = test system: TEAD reporter (8×GTIIC-luciferase) in W138 VA13 cells; assay: TEAD reporter assay; type: cell-based; details: 24 or 72 hours
Procedure: TEAD reporter activity was analyzed using W138 VA13 cells stably expressing a YAP/TAZ responsive synthetic promoter driving luciferase expression (8×GTIIC-luciferase). 10,000 cells per well were seeded on a white-walled 96-well plate and left overnight. After 16-20 hours, cells were treated with compound and TEAD reporter activity was measured 24 or 72 hours later using Bright Glo luciferase assay (Promega) according to the manufacturer's instructions. This assay was performed 3 times for Compound 1 and twice for Trametinib.

[11] = Approximate solubility in various solvents at room temperature; type: physicochemical
Procedure: (§1) The resulting mixture was agitated for about 1 day at room temperature. If all of the solids appeared to be dissolved by visual inspection, the estimated solubility was calculated based on the total volume of solvent used to give a complete solution. If solids were present, a known volume of filtrate was evaporated to dryness and the weight of the residue was measured to estimate the solubility.
as §1, with “for” for “for about”

[12] = Form conversion / form transfer experiments (humidity, drying, competitive slurries); type: physicochemical
Source text: The thermodynamic relationship between the two forms was explored through form conversion experiments (Table 31).

CC1(C(N)=O)CCC(n2c(Nc3c(Cl)cc(Cl)cc3Cl)nc3cnc(NC4CCOCC4F)nc32)CC1.O=C(O)CC(O)(CC(=O)O)C(=O)O (centres unmarked) [Z]
DVS water uptake [1]: ~1.6 wt % water

CC1(C(N)=O)CCC(n2c(Nc3c(Cl)cc(Cl)cc3Cl)nc3cnc(NC4CCOCC4F)nc32)CC1.O=C(O)CC(O)(CC(=O)O)C(=O)O (centres unmarked) [Form Y]
solid form after compression [2]: still Form Y
hygroscopicity (in words) [1]: slightly hygroscopic
water uptake [1]: about 2.1 % w/w

C[C@]1(C(N)=O)CC[C@@H](n2c(Nc3c(Cl)cc(Cl)cc3Cl)nc3cnc(N[C@@H]4CCOC[C@H]4F)nc32)CC1 [amorphous]
reversible weight change ([1]; between 10 and 50% RH): about 3.5%
DVS water uptake up to 90 % RH [1]: 6.9 wt % water

CC1(C(N)=O)CCC(n2c(Nc3c(Cl)cc(Cl)cc3Cl)nc3cnc(NC4CCOCC4F)nc32)CC1.Cl (centres unmarked) [starting material HCl Salt Form]
DVS wt gain [1]: ~3.6% wt
hygroscopicity (in words) [1]: moderately hygroscopic
mass change ([1]; from 0% RH to 95% RH at 25° C.): 3.6 wt %

CC1(C(N)=O)CCC(n2c(Nc3c(Cl)cc(Cl)cc3Cl)nc3cnc(NC4CCOCC4F)nc32)CC1.Cl.O (centres unmarked) [HCl Salt]
pH at final ([3]; 0.5% HPMC/[…] Tween80): 3.06
pH at final ([3]; SGF): 1.17
pH at final ([3]; SIF): 7.22
pH at final ([3]; Water): 3.65
solid state stability (in words) [4]: chemically and physically stable in solid state
Chemical (40° C./75% RH) RRT = 2.2 ([4]; 40° C./75% RH): 0.02%
Physical (40° C./75% RH) ([4]; 40° C./75% RH): Stable
Chemical (60° C.) RRT2.2 [4]: 0.05%
Physical (60° C.) [4]: Stable
pH ([5]; FaSSGF): 1.82
pH ([5]; FaSSIF): 6.12
pH ([5]; FeSSGF): 5.66
pH ([5]; FeSSIF): 4.85
hygroscopicity with respect to monohydrate ([1]; 0-95% RH): < 1.0%
hygroscopicity (in words) [1]: low hygroscopicity
remaining water released ([1]; from 5% RH to dry): ~2.8 % wt
additional moisture sorption ([1]; from 25 to 95% RH): ~1.7%
loss of water content during desorption cycle ([1]; from 95 down to 5% RH): ~1.5%

CC1(C(N)=O)CCC(n2c(Nc3c(Cl)cc(Cl)cc3Cl)nc3cnc(NC4CCOCC4F)nc32)CC1.Cl (centres unmarked) [anhydrate/amorphous starting material]
Approximate Solubility ([6]; 2-MeTHF): S < 0.9 mg/mL
Approximate Solubility ([6]; DCM): S < 1.6 mg/mL
Approximate Solubility ([6]; DMAc): S > 18 mg/mL
Approximate Solubility ([6]; DMSO): S > 22 mg/mL
Approximate Solubility ([6]; EtOAc): S < 1.5 mg/mL
Approximate Solubility ([6]; EtOH): S > 28 mg/mL
Approximate Solubility ([6]; H2O): S < 1.0 mg/mL
Approximate Solubility ([6]; Heptane): S < 1.7 mg/mL
Approximate Solubility ([6]; IPAc): S < 1.3 mg/mL
Approximate Solubility ([6]; MIBK): S < 1.5 mg/mL
Approximate Solubility ([6]; MTBE): S < 1.0 mg/mL
Approximate Solubility ([6]; MeOAc): S < 0.9 mg/mL
Approximate Solubility ([6]; MeOH): S > 31 mg/mL
Approximate Solubility ([6]; NMP): S > 24 mg/mL
Approximate Solubility ([6]; Toluene): S < 1.4 mg/mL

Citrate
hygroscopicity (in words) [1]: low hygroscopicity

C[C@]1(C(N)=O)CC[C@@H](n2c(Nc3c(Cl)cc(Cl)cc3Cl)nc3cnc(N[C@@H]4CCOC[C@H]4F)nc32)CC1 [Free Base]
Conc. at 24 Hrs: 3 µg/mL
Conc. at 24 Hrs (pH 4.23): 178 µg/mL
solubility thermodynamic at 24 h (physchem [7]): 3.48 mg/mL (≈ 6.1 mM)
pH at final ([3]; 0.5% HPMC/[…] Tween80): 4.23
pH at final ([3]; SGF): 1.93
pH at final ([3]; SIF): 7.33
pH at final ([3]; Water): 8.11
solid state stability (in words) [4]: chemically and physically stable in solid state
Physical (40° C./75% RH) ([4]; 40° C./75% RH): Stable
Chemical (60° C.) RRT2.2 [4]: <0.03%
Physical (60° C.) [4]: Dehydration (−),
pH ([5]; FaSSGF): 2.77
pH ([5]; FaSSIF): 6.37
pH ([5]; FeSSGF): 6.23
pH ([5]; FeSSIF): 4.95
hygroscopicity (in words) ([1]; listed as monohydrate free base): slightly hygroscopicity
solubility (physchem [8]): 3.85 mg/mL (≈ 6.74 mM)
temperature above which crystal form of monohydrate changes [9]: > 60 °C
stability in solution ([9]; pH 1.2 to 7.5, 40° C.): stable
chemical and physical stability in solid state under stress conditions ([9]; solid state, stress conditions): up to seven weeks

CC(=O)Nc1cccc(-n2c(=O)n(C3CC3)c(=O)c3c(Nc4ccc(I)cc4F)n(C)c(=O)c(C)c32)c1 [Trametinib, reference compound]
inhibition of TEAD reporter activity [10]: did not inhibit

CC1(C(N)=O)CCC(n2c(Nc3c(Cl)cc(Cl)cc3Cl)nc3cnc(NC4CCOCC4F)nc32)CC1.Cl.O (centres unmarked) [Form 8]
DVS wt gain [1]: ~2% wt

C[C@]1(C(N)=O)CC[C@@H](n2c(Nc3c(Cl)cc(Cl)cc3Cl)nc3cnc(N[C@@H]4CCOC[C@H]4F)nc32)CC1 [Form A]
solubility at 1 day ([11]; 1,4-dioxane, organic solvent or mixture, thermodynamic from solid, 1,4-dioxane): > 50 mg/mL
solubility at 1 day ([11]; 2-MeTHF, organic solvent or mixture, thermodynamic from solid): > 50 mg/mL
solubility at 1 day ([11]; DCM, organic solvent or mixture, thermodynamic from solid): > 50 mg/mL
solubility at 1 day ([11]; EtOAc, organic solvent or mixture, thermodynamic from solid): > 100 mg/mL
solubility at 1 day ([11]; EtOH, organic solvent or mixture, thermodynamic from solid): > 20 mg/mL
solubility at 1 day ([11]; EtOH/water (1:1), aqueous with cosolvent or surfactant or cyclodextrin, thermodynamic from solid, EtOH/water (1:1)): > 3 mg/mL
solubility at 1 day ([11]; IPA, organic solvent or mixture, thermodynamic from solid): > 10 mg/mL
solubility at 1 day ([11]; IPAc, organic solvent or mixture, thermodynamic from solid): > 50 mg/mL
solubility at 1 day ([11]; MEK, organic solvent or mixture, thermodynamic from solid): > 50 mg/mL
solubility at 1 day ([11]; MIBK, organic solvent or mixture, thermodynamic from solid): > 50 mg/mL
solubility at 1 day ([11]; MTBE, organic solvent or mixture, thermodynamic from solid): > 20 mg/mL
solubility at 1 day ([11]; MeCN, organic solvent or mixture, thermodynamic from solid): > 3 mg/mL
solubility at 1 day ([11]; MeCN/water (1:1), aqueous with cosolvent or surfactant or cyclodextrin, thermodynamic from solid, MeCN/water (1:1)): > 50 mg/mL
solubility at 1 day ([11]; MeOAc, organic solvent or mixture, thermodynamic from solid): > 100 mg/mL
solubility at 1 day ([11]; MeOH, organic solvent or mixture, thermodynamic from solid): > 50 mg/mL
solubility at 1 day ([11]; THF, organic solvent or mixture, thermodynamic from solid): > 100 mg/mL
solubility at 1 day ([11]; THF/water (1:1), aqueous with cosolvent or surfactant or cyclodextrin, thermodynamic from solid, THF/water (1:1)): > 50 mg/mL
solubility at 1 day ([11]; acetone, organic solvent or mixture, thermodynamic from solid): > 100 mg/mL
solubility at 1 day ([11]; heptane, organic solvent or mixture, thermodynamic from solid): < 1 mg/mL
solubility at 1 day ([11]; n-BuOH, organic solvent or mixture, thermodynamic from solid): > 20 mg/mL
solubility at 1 day ([11]; toluene, organic solvent or mixture, thermodynamic from solid): > 10 mg/mL
solubility at 1 day ([11]; water, thermodynamic from solid): < 1 mg/mL
Resulting Form ([12]; no solvent, RT and 0% RH 6 days): B + A
weight change ([1]; between 10 and 30% RH): over 3%
additional water uptake ([1]; between 30-90% RH): approximately 1.4 wt %
DVS water uptake up to 90 % RH ([1]; listed as A): 4.7 wt % water

CC1(C(N)=O)CCC(n2c(Nc3c(Cl)cc(Cl)cc3Cl)nc3cnc(NC4CCOCC4F)nc32)CC1.O=C(O)CC(O)(CC(=O)O)C(=O)O (centres unmarked) [Y]
DVS water uptake [1]: ~2.1 wt % water

CC1(C(N)=O)CCC(n2c(Nc3c(Cl)cc(Cl)cc3Cl)nc3cnc(NC4CCOCC4F)nc32)CC1.O=C(O)CC(O)(CC(=O)O)C(=O)O (centres unmarked) [Form Z]
solid form after compression [2]: still Form Z
hygroscopicity (in words) [1]: slightly hygroscopic
water uptake [1]: about 1.6 % w/w

CC1(C(N)=O)CCC(n2c(Nc3c(Cl)cc(Cl)cc3Cl)nc3cnc(NC4CCOCC4F)nc32)CC1.O=C(O)CC(O)(CC(=O)O)C(=O)O (centres unmarked) [Y + Z]
Resulting Form(s) ([12]; Slurry in EtOAc, RT, 5 days): Y + Z
Resulting Form(s) ([12]; Slurry in EtOAc, RT, 10 days): Y + Z
Resulting Form(s) ([12]; Slurry in Toluene, 50° C., 4 days): Z + Y
Resulting Form(s) ([12]; Slurry in Toluene, RT, 5 days): Z + Y
Resulting Form(s) ([12]; Slurry in Toluene, RT, 10 days): Z + Y

CC1(C(N)=O)CCC(n2c(Nc3c(Cl)cc(Cl)cc3Cl)nc3cnc(NC4CCOCC4F)nc32)CC1.Cl.O (centres unmarked) [Form 7]
DVS wt gain [1]: ~4.5% wt
